Results on four compounds are retold here after publication PMC10791652, “The adhesion GPCR GPR116/ADGRF5 has a dual function in pancreatic islets regulating somatostatin release and islet development” (Communications Biology, 2024).

Test [1] relates to endogenous purinergic receptors. Nature of the test: Fura-2 Ca2+ imaging in HEK293T cells (ATP control). Format: cell-based. As to conditions: 100 µM ATP. As for the experimental part:
(§1) Fura-2-based Ca^2+ imaging was performed in transfected HEK293T cells (Supplementary Experimental Procedures) and intact pancreatic islets using a monochromator-based imaging system, and the imaging software TILLvisION 4.0 (T.I.L.L. Photonics). Emitted fluorescence (excited at 340 and 380 nm) was acquired at intervals of 2 seconds and corrected for background fluorescence. HEK293T cells and islets were loaded with 5 µM fura-2 AM in standard bath solution containing 140 mM NaCl, 10 mM HEPES, 5 mM KCl, 2 mM CaCl2, 1 mM MgCl2, and 3 mM glucose for 30 or 60 min. HEK293T cells (25,000 cells/well) were seeded into 24-well plates on poly-L-lysine coated glass cover slips and were transiently transfected with plasmids encoding for GPR116 and GFP the next day. Ca^2+ imaging was carried out 72 h post transfection. HEK293T cells were exposed to p116sc, p116 (1 mM each), and ATP (100 µM) in standard bath solution. Pancreatic mouse islets (3 - 4 islets per coverslip) were transferred one day after preparation into 12-well plates on poly-L-lysine coated glass cover slips. 48 h after seeding islets were exposed to 1 mM p116sc, 1 mM p116, and 100 µM carbachol (CCh) in standard bath solution.

Test [2] relates to mock-transfected HEK293T cells. Nature of the test: Fura-2 Ca2+ imaging in mock-transfected HEK293T cells. The format is cell-based. Conditions: 1 mM peptide or 100 µM ATP. As for the experimental part:
as §1

The test system of test [3] is muscarinic acetylcholine receptors. Nature of the test: Fura-2 Ca2+ imaging in intact pancreatic islets (carbachol positive control). Format: cell-based, mouse. Conditions: 100 µM carbachol, fura-2 ratio F340/F380. The procedure: as §1
The next test relates to Gαq/11 protein. Nature of the test: Somatostatin secretion from islets after pre-incubation with Gq inhibitor. Format: cell-based, mouse. As to conditions: pre-incubation with FR900359, then 2 mM p116, high glucose, 30 min. The procedure:
Equilibration of five islets was performed in KRB containing 2.8 mM glucose for 30 min at 37 °C in 96-well plates. If not mentioned otherwise, islets were stimulated with peptide solution or respective controls in KRB for 30 min at 37 °C. Islets were lysed with acid ethanol and supernatant as well as lysates kept frozen at −20 °C until measurement. To measure insulin the AlphaLISA technology (Perkin Elmer) was used according to the manufacturer’s protocol in 384-well OptiPlate microplates (Perkin Elmer) with the EnVision Multilabel Reader (Perkin Elmer). Somatostatin amounts were determined using either AlphaLISA (Perkin Elmer) or ELISA (Phoenix Pharmaceuticals). For reliable measurement protocol adaptions were necessary. For AlphaLISA these were as follows: increasing sample volumes to 35 µl/well, reduced bead volume of 5 µl/well, and an extended incubation period with donor beads of 90 min. For the ELISA measurement the sample incubation time was extended to over-night and the biotinylated peptide was diluted 1:5 to achieve reliable results.

Test [4] has as its system growth hormone secretagogue receptor/ghrelin (GHS-R) receptor. The test is described as follows: Fura-2 Ca2+ imaging in intact pancreatic islets (ghrelin). Format: cell-based, mouse. As to conditions: 300 nM ghrelin.

Numbered stars: 1 amine (or outer) side, 2 acyl side, 3 side chain; on linkers, the order of the positions; unused ones are H or OH. Bridge positions count the residues as written; N and C are the ends. Square brackets hold non-standard residues; d marks the D form. Ends that are not written are not given here. Peptide text beside a SMILES is read from it. * marks the point of attachment. Leu(3R-OH,Nα-propionyl) = CCC(=O)N[C@H](C(=O)*)[C@H](O)C(C)C; X1 = CC(C)[C@@H](O[*:3])[C@H](N[*:1])C(=O)[*:2]; NMeT = CN[C@H](C(=O)O)[C@@H](C)O; dPhLac = O=C(O)[C@H](O)Cc1ccccc1; NMeA = CN[C@@H](C)C(=O)O; NMeDha = C=C(NC)C(=O)O

For the compound `Nc1ncnc2c1ncn2[C@@H]1O[C@H](COP(=O)(O)OP(=O)(O)OP(=O)(O)O)[C@@H](O)[C@H]1O` [ATP], the “intracellular Ca2+ transients in GPR116-transfected HEK293T cells” value in test [1] was “induced”. In addition, the “intracellular Ca2+ response in mock-transfected cells” value in test [2] is on record as “strongly increased intracellular Ca2+ levels”.
`C[N+](C)(C)CCOC(N)=O` [CCh, carbachol]: in test [3], the “Ca2+ response in pancreatic islets” value is “strong Ca^2+ elevation”.
In the case of `C=C1C(=O)N[C@@H](C)C(=O)N(C)[C@@H](C)C(=O)N[C@@H]([C@H](OC(=O)[C@@H](NC(=O)CC)[C@H](O)C(C)C)C(C)C)C(=O)N(C)[C@@H]([C@@H](C)OC)C(=O)O[C@H](C(C)C)[C@H](NC(C)=O)C(=O)O[C@H](Cc2ccccc2)C(=O)N1C` [FR900359] (Ac-[X1][dPhLac][NMeDha]A[NMeA][X1](Leu(3R-OH,Nα-propionyl))[NMeT](Me); ester 1-C), in the test with Gαq/11 protein, the “effect of Gq inhibitor on p116-induced somatostatin secretion” value was “completely abolished somatostatin secretion”.
Turning to “ghrelin (GSSFLSPEHQRVQQRKESKKPPAKLQP; ends and bridges not checked; UniProt Q9UBU3 24-50, looked up)”, in test [4] (MIP-GFP mouse islets, EGFP-positive regions), the “Ca2+ response in insulin-expressing beta cells of islets” value is “absent in insulin-expressing beta cells”. The “Ca2+ response in pancreatic islets” value in test [4] (then 1 mM p116, MIP-GFP mouse islets) is reported as “elicited Ca^2+ signals with partially overlapping localization”.
